# Measured values: patent US11014871B2, ““Multi-target” compounds with inhibitory activity towards histone deacetylases and tubulin polymerisation, for use in the treatment of cancer” (UNIVERSITE PARIS-SUD, priority 2016, dated 2021)
# Entries after “also recorded” stand apart in the source; their conditions may differ. Read-outs that look alike come from different tables or passages of the source.
# Columns and labels:
# [1] = test system: HCT116; assay: Cytotoxic activity on HCT116; type: cell-based; conditions: for IC50: Homo sapiens, read-out: HCT116 IC50; for antiproliferative / cytotoxic activity in words: comment on Table 1
# Protocol: (§1) The cytotoxic activity of the prepared compounds was evaluated on various human cancer cell lines. The selected line was incubated at 37° C. in the presence of one of the novel compounds, added to the culture medium at various concentrations.
# [2] = test system: Tubulin; assay: Inhibition of tubulin polymerisation (ITP); type: biochemical, sheep; conditions: tubulin 10 μM; inhibition of maximum assembly rate
# Protocol: To verify whether the antiproliferative activities of novel molecules 2 and 3 correlate with their anti-tubulin effects, their ability to inhibit tubulin polymerisation into microtubules was measured in vitro. Tubulin was purified from sheep brains according to the Shelanski method by two assembly-disassembly cycles. The stock solution (15-20 mg/mL), stored at −196° C., is thawed and diluted in the assembly buffer (0.1 M MES, 0.5 mM MgCl2, 1 mM EGTA, and 1 mM GTP, pH 6.6) to a final concentration of 10 μM. Tubulin assembly was monitored by fluorescence on 96-well plates according to the method of Barron et al. The tubulin solution (10 μM, 100 μL per well) was supplemented with inhibitor (DMSO, 1 μL) and incubated for 45 min at room temperature. GTP (1 mM final) was then added, the solution was rapidly mixed and the fluorescence (λex=350 nm, λem=440 nm) was measured on a Wallac Victor fluorimeter (Perkin Elmer). Fifty-percent inhibition of the maximum assembly rate (IC50) was determined in duplicate or triplicate on 10 concentrations flanking the IC50. For comparison, deoxypodophyllotoxin and isoCA-4 were used as positive controls.
# [3] = test system: HDACs 1 to 11; assay: Inhibition of HDACs 1 to 11 (panel); type: biochemical; conditions: percentage inhibition at test concentration of 1.0^−5 M
# [4] = test system: K562R; assay: Cytotoxic activity on K562R; type: cell-based; conditions: Homo sapiens, K-562R; 72 hours of incubation; imatinib-resistant
# Protocol: as §1
# [5] = biological target: T1, HDAC11 (Homo sapiens, UniProt Q96DB2); assay: Inhibition of HDAC11 activity; type: biochemical; conditions: FIG. 5
# T1 sequence (Q96DB2 1-347): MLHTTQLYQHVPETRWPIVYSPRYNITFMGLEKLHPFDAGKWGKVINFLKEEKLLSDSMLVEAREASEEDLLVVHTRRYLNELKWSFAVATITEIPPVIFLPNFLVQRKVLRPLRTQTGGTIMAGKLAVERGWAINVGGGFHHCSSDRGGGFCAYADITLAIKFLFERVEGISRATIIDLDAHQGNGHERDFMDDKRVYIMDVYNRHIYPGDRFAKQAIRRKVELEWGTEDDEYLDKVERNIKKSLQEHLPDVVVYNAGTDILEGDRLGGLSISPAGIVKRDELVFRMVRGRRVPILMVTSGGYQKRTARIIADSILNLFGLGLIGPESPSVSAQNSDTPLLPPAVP
# [6] = test system: many human cancer lines; conditions: many human cancer lines and resistant lines; read-out: cytotoxic IC50; cited from earlier work
# [7] = test system: SOJ6; assay: Cytotoxic activity on SOJ6; type: cell-based; conditions: Homo sapiens; 72 hours of incubation; read-out: Cytotoxicity IC50 SOJ6
# Protocol: as §1
# [8] = test system: PC3; assay: Cytotoxic activity on PC3; type: cell-based; conditions: Homo sapiens, PC-3; 72 hours of incubation; read-out: Cytotoxicity IC50 PC3
# Protocol: as §1
# [9] = test system: U87; assay: Cytotoxic activity on U87; type: cell-based; conditions: Homo sapiens, U-87 MG; 72 hours of incubation; read-out: Cytotoxicity IC50 U87
# Protocol: as §1
# [10] = test system: other human tumour lines; assay: Cytotoxicity to other human tumour lines (panel); type: cell-based; conditions: A549, K562, MCF7, PC3, U87, U2OS, SOJ6, BxPC-3, MiaPaCa-2, read-out: IC50 values across other human tumour lines
# Protocol: as §1
# [11] = test system: BxPC3; assay: Cytotoxic activity on BxPC3; type: cell-based; conditions: Homo sapiens, BXPC-3; 72 hours of incubation; read-out: Cytotoxicity IC50 BxPC3
# Protocol: as §1
# [12] = test system: K562; assay: Cytotoxic activity on K562; type: cell-based; conditions: Homo sapiens, 72 hours of incubation, read-out: Cytotoxicity IC50 K562
# Protocol: as §1
# [13] = test system: MCF7; assay: Cytotoxic activity on MCF7; type: cell-based; conditions: Homo sapiens, 72 hours of incubation, read-out: Cytotoxicity IC50 MCF7
# Protocol: as §1
# [14] = test system: U2OS; assay: Cytotoxic activity on U2OS; type: cell-based; conditions: Homo sapiens, 72 hours of incubation, read-out: Cytotoxicity IC50 U2OS
# Protocol: as §1
# [15] = biological target: T2, HDAC8 (Homo sapiens, UniProt Q9BY41); assay: Inhibition of HDAC8 activity; type: biochemical
# T2 sequence (Q9BY41 1-377): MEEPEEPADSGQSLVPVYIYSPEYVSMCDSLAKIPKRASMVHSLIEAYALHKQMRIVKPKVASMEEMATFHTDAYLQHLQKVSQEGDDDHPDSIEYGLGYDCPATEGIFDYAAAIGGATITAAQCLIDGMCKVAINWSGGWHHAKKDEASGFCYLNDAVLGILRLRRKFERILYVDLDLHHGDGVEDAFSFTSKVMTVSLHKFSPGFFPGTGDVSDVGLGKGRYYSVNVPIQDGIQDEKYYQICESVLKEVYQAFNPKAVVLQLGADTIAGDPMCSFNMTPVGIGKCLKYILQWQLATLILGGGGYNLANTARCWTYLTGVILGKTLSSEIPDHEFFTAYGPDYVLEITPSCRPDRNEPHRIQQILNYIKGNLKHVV
# [16] = test system: MiaPaCa 2; assay: Cytotoxic activity on MiaPaCa 2; type: cell-based; conditions: Homo sapiens, MIA PaCa-2; 72 hours of incubation; read-out: Cytotoxicity IC50 MiaPaCa 2
# Protocol: as §1
# [17] = test system: A549; assay: Cytotoxic activity on A549; type: cell-based; conditions: Homo sapiens, 72 hours of incubation, read-out: Cytotoxicity IC50 A549
# Protocol: as §1
# [18] = HCT-116, 72 hours of incubation
SMILES,"IC50 [1, 18] [nM]",IC50 [2] [nM],selective inhibitory activity among HDACs 1 to 11 [3],antiproliferative / cytotoxic activity in words [1],further results
"C=C(c1cc(OC)c(OC)c(OC)c1)c1ccc(OC)c(C(=O)NO)c1 [Compound 1, N-Hydroxy-2-methoxy-5-(1-(3,4,5-trimethoxyphenyl)vinyl)benzamide]",233 ± 22,20000 ± 1200,,,
"C=C(c1cc(OC)c(OC)c(OC)c1)c1ccc2c(ccn2CCC(=O)NO)c1 [Compound 44, N-Hydroxy-3-(5-(1-(3,4,5-trimethoxyphenyl)vinyl)-1H-indol-1-yl)propanamide]",393 ± 4.1,22000 ± 2000,,,
"C=C(c1cc(OC)c(OC)c(OC)c1)c1ccc2c(c1)cc(/C=C/C(=O)NO)n2C [Compound 12, (E)-N-Hydroxy-3-(1-methyl-5-(1-(3,4,5-trimethoxyphenyl)vinyl)-1H-indol-2-yl)acrylamide]",12 ± 2.5,5400 ± 1200,"selective inhibitory activity against HDAC6, HDAC8 and HDAC11; also recorded: selective activity for HDAC6, HDAC8 and HDAC11",excellent antiproliferative activity,
"C=C(c1ccc(OC)c(O)c1)c1cc(OC)c(OC)c(OC)c1 [isoCA-4, Isocombretastatin A-4, reference compound]",,1800 ± 400,,,"IC50 ([1]; HCT-116, 72 h): 2 nM"
"C=C(c1ccc(OC)c(C#CCCC(=O)NO)c1)c1cc(OC)c(OC)c(OC)c1 [Compound 3, N-Hydroxy-5-(2-methoxy-5-(1-(3,4,5-trimethoxyphenyl)vinyl)phenyl)pent-4-ynamide]",35,1700,selective inhibitory activity against HDAC8 and HDAC11; also recorded: selective activity for HDAC8 and HDAC11,cytotoxic at nanomolar concentrations,IC50 [4]: 33 nM; IC50 [5]: 11000 nM
"C=C(c1ccc(OC)c(C#CCCCC(=O)NO)c1)c1cc(OC)c(OC)c(OC)c1 [Compound 4, N-Hydroxy-6-(2-methoxy-5-(1-(3,4,5-trimethoxyphenyl)vinyl)phenyl)hex-5-ynamide]",372 ± 5,18000 ± 1200,,,
"C=C(c1cc(OC)c(OC)c(OC)c1)c1ccc2c(c1)c(/C=C/C(=O)NO)cn2C [Compound 11, (E)-N-Hydroxy-3-(1-methyl-5-(1-(3,4,5-trimethoxyphenyl)vinyl)-1H-indol-3-yl)acrylamide]",2.2 ± 0.26,3700 ± 500,selective inhibitory activity against HDAC6 and HDAC8; also recorded: selective activity for HDAC6 and HDAC8,excellent antiproliferative activity,
"COc1ccc(/C=C\c2cc(OC)c(OC)c(OC)c2)cc1O [CA-4, combretastatin A-4]",,,,,IC50 [6]: 1 to 2 nM
"C=C(c1ccc(OC)c(/C=C/C(=O)NO)c1)c1cc(OC)c(OC)c(OC)c1 [Compound 2, (E)-N-Hydroxy-3-(2-methoxy-5-(1-(3,4,5-trimethoxyphenyl)vinyl)phenyl)acrylamide]",2.5,1600,selective inhibitory activity against HDAC8; also recorded: selective activity for HDAC8 and HDAC11,,IC50 [7]: 6.8 nM; IC50 [8]: 2.4 nM; IC50 [9]: 1.6 nM; IC50 [10]: 1.6 to 6.8 nM; IC50 [4]: 1.6 nM; IC50 [11]: 2.9 nM; IC50 [12]: 1.6 nM; IC50 [13]: 2 nM; IC50 [14]: 1.9 nM; IC50 [15]: 340 nM; IC50 [16]: 5.1 nM; IC50 [17]: 1.7 nM
"C=C(c1cc(OC)c(OC)c(OC)c1)c1ccc(OC)cc1/C=C/C(=O)NO [Compound 8, (E)-N-Hydroxy-3-(5-methoxy-2-(1-(3,4,5-trimethoxyphenyl)vinyl)phenyl)acrylamide]",2 ± 0.1,2100 ± 400,"selective inhibitory activity against HDAC6, HDAC8 and HDAC11; also recorded: selective activity for HDAC6, HDAC8 and HDAC11",,
"C=C(c1cc(OC)c(OC)c(OC)c1)c1ccc2c(c1)c(C(=O)NO)cn2C [Compound 25, N-Hydroxy-1-methyl-5-(1-(3,4,5-trimethoxyphenyl)vinyl)-1H-indole-3-carboxamide]",30 ± 1.5,7300 ± 3300,,excellent antiproliferative activity,
"C=C(c1cc(OC)c(OC)c(OC)c1)c1ccc2c(c1)cc(C(=O)NO)n2C [Compound 43, N-Hydroxy-1-methyl-5-(1-(3,4,5-trimethoxyphenyl)vinyl)-1H-indole-2-carboxamide]",36 ± 4,81000 ± 15000,,excellent antiproliferative activity,
"C=C(c1cc(OC)c(OC)c(OC)c1)c1ccc(OC)c(/C=C/C(=O)NO)n1 [Compound 17, (E)-N-Hydroxy-3-(3-methoxy-6-(1-(3,4,5-trimethoxyphenyl)vinyl)pyridin-2-yl)acrylamide]",37.2 ± 0.6,7500 ± 1500,,excellent antiproliferative activity,
